For 21 compounds, IC50 and inhibition results are on record in patent US11613531B2, “Inhibitors of RHO associated coiled-coil containing protein kinase” (Kadmon Corporation, LLC, priority 2017, dated 2023).

Assay [1] has as its target Recombinant ROCK2 (amino acids 1-552) (Homo sapiens (Human), UniProt O75116). The experiment in a line: Z′-Lyte kinase assay, ROCK2. Format: biochemical. Conditions: for inhibition at 0.5 µM: 0.5 μM compound; for inhibition at 0.5 µM / inhibition at 3 µM: read-out: ROCK2 % inh. @ [conc]; for inhibition at 3 µM: 3 μM compound. The method in brief: (§1)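 IC50s derive from nonlinear curve fits over a 9-point, 2-fold dilution series, with single-point inhibition at 1 μM expressed relative to DMSO. Activity of truncated human ROCK1 (residues 1-535) and ROCK2 (residues 1-552) measured with the Z′-Lyte kinase format.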

In assay [2] the test system is human ACTA2 gene promoter luciferase reporter in NIH3T3 cells. The experiment in a line: NIH3T3 Acta2-promoter driven-luciferase assay. Format: cell-based. The note with it: NIH3T3, 24 h, read-out: NIH3T3 Acta2-luc, IC50. As for the experimental part:
NIH3T3 Cells Acta2-Promoter Driven-Luciferase Assay.
A NIH3T3 cell line stably expressing a luciferase reporter driven by the human ACTA2 gene promoter (−1000-1 bp) was established (NIH3T3-Acta2-luciferase). The cells were plated to confluence and treated with the test compounds plus TGFβ1 for 24 hr. Cells were then lysed and luciferase activity was measured using the LightSwitch luciferase kit from Active Motif.
In vitro activities for the compounds were measured with Z′-lyte kinase kit (ThermoFisher Scientific). The percent inhibition rate was calculated by normalizing the kinase activity value obtained with 1 μM compound treatment against DMSO control value and then applied to the formula, [1-(compound/DMSO)]×100%. IC50s were calculated using the nonlinear regression curve fit function of the GraphPad Prism software with kinase activities data measured with 9 points 2-fold serial dilution of compounds treatment. In cell pMLC IC50s were calculated with data obtained from A7R5 cell experiments. A7R5 cells were treated with 9 points 2-fold serial dilution of compounds and ppMlc (T18/S19) levels were determined to calculate cellular IC50 values of the compounds using the nonlinear regression curve fit function of the GraphPad Prism software. NIH3T3 cells stably expressing ACTA2-promoter-driven-luciferase were applied to measure ROCK compounds functional IC50s in cells. Cells were plated in 96 well plates to confluence and treated with 9 points serial dilution of compounds in combination with TGFβ1 for 24 hr. Luciferase activities were measured and compound's IC50s were calculated using the nonlinear regression curve fit function of the GraphPad Prism software.
ROCK inhibitors can be effectively rank ordered by ACTA2-promoter-driven-luciferase reporter cell assay. NIH3T3 cells stably expressing ACTA2-promoter-driven-luciferase were plated in 96 well plates to confluence and treated with 9 points serial dilution of compounds in combination with TGFβ1 for 24 hr. Luciferase activities were measured and compound's IC50s were calculated. By this assay multiple compounds of the invention gave IC50s under 200 nM.

Assay [3] relates to ppMlc (T18/S19) levels in A7R5 cells. Description: A7R5 in-cell ELISA (pMLC). Format: cell-based, Rat. Conditions: Rattus norvegicus, A7R5, A7R5 cells; for inhibition at 1 µM: 1 μM compound; for inhibition at 1 µM / inhibition at 10 µM: read-out: pMLC % inh A7R5 @ [conc]; for inhibition at 10 µM: 10 μM compound. The essentials:
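Cellular IC50 came from a nonlinear regression fit of ppMlc (T18/S19) signal, read by colorimetric in-cell ELISA on fixed cells. Rat A7R5 aortic smooth muscle cells had been exposed for 90 min to compounds in 9-point 2-fold serial dilution, 24 h after seeding.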
(In an ELISA, binding on a coated surface is turned into a signal by an enzyme label.)

Assay [4] deals with Recombinant ROCK1 (amino acids 1-535) (Homo sapiens (Human), UniProt Q13464). The experiment in a line: Z′-Lyte kinase assay, ROCK1. The note with it: for inhibition at 3 µM: 3 μM compound; for inhibition at 3 µM / inhibition at 0.5 µM: read-out: ROCK1 % inh. @ [conc]; for inhibition at 0.5 µM: 0.5 μM compound. Format: biochemical. The essentials: as §1
Chain of Recombinant ROCK1 (amino acids 1-535) (Q13464 1-535): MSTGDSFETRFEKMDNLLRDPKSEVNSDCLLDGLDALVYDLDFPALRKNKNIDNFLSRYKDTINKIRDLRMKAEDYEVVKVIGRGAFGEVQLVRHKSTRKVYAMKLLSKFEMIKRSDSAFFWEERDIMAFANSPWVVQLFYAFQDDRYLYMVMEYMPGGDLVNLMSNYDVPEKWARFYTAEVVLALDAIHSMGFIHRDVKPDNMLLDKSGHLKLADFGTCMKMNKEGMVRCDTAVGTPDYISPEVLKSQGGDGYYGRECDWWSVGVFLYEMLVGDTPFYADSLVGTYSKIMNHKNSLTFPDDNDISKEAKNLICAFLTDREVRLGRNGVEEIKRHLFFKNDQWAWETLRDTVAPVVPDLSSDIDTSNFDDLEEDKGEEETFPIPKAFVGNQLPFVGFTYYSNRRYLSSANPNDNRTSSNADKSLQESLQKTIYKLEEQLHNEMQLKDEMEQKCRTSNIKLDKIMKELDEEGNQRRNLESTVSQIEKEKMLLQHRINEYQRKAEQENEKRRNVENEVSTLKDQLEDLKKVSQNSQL
[5] abbreviates: 9 points 2-fold serial dilution.

Read-outs that look alike come from different tables or passages of the source.

What is called IC50 is the concentration that gives 50% inhibition.

Chain of Recombinant ROCK2 (amino acids 1-552) (O75116 1-552): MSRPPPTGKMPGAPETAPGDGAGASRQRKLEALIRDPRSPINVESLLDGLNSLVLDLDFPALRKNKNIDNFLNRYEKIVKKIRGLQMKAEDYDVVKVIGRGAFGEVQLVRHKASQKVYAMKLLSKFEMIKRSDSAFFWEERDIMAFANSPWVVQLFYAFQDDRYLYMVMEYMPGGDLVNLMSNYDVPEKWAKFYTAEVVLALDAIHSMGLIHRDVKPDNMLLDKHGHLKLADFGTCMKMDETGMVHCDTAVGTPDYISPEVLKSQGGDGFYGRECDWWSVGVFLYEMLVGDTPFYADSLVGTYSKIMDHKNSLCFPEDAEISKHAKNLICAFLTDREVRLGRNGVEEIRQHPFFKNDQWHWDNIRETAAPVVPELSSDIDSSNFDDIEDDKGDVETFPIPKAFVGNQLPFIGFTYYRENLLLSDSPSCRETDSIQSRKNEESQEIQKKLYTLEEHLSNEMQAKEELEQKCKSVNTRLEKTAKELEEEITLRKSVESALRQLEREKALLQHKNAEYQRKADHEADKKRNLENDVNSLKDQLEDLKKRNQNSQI

Turning to `CCOC(=O)[C@H]1N[C@@H]2C[C@@H]1CN(c1ncc(Cl)c(Nc3ccc4[nH]ncc4c3)n1)C2` (stereo in doubt) [Example 326, Ethyl 3-(4-((1H-indazol-5-yl)amino)-5-chloropyrimidin-2-yl)-3,6-diazabicyclo[3.2.1]octane-7-carboxylate], the IC50 is 305 nM in assay [1]; more than 10 µM in assay [2] (with TGFβ1, 24 hr); 6290 nM in assay [3]. Also, the inhibition at 0.5 µM in assay [1] came out at 64%.

`c1cc(-c2ccc(Nc3nc(N4C5CCC4CNC5)nc4c3COCC4)cc2)ccn1` [Example 37, 2-(3,8-diazabicyclo[3.2.1]octan-8-yl)-N-(4-(pyridin-4-yl)phenyl)-7,8-dihydro-5H-pyrano[4,3-d]pyrimidin-4-amine]: the IC50 in assay [2] (with TGFβ1, 24 hr) was more than 10 µM; in assay [3], 7060 nM.

Consider `c1cc(Nc2ccc3[nH]ncc3c2)nc(N2CC[C@@H]3NC[C@@H]3C2)n1` [Example 82, N-(2-((1R,6S)-3,7-diazabicyclo[4.2.0]octan-3-yl)pyrimidin-4-yl)-1H-indazol-5-amine], for which the IC50 was found to be 12 nM in assay [1]; 3.42 µM in assay [2] (with TGFβ1, 24 hr); 572 nM in assay [3]. Besides, the inhibition at 1 µM in assay [3] came to 42.5%.

For the compound `Cc1cnc(N2CCNC(C(C)C)C2)nc1Nc1ccc2[nH]ncc2c1` (centres unmarked) [Example 101, N-(2-(3-isopropylpiperazin-1-yl)-5-methylpyrimidin-4-yl)-1H-indazol-5-amine], the half-inhibitory concentration (IC50) in assay [2] (NIH3T3 cells, plus TGFβ1 for 24 hr) was found to be 7.53 µM. Besides, the inhibition at 10 µM in assay [3] turned out to be 19.2%.

As for `CC1CCN(c2nc(Nc3ccc(-c4ccncc4)cc3)c3ccccc3n2)CCN1` (centres unmarked) [Example 239, 2-(5-methyl-1,4-diazepan-1-yl)-N-(4-(pyridin-4-yl)phenyl)quinazolin-4-amine], the inhibition at 3 µM in assay [4] and in assay [1] was 100% throughout. The results for the IC50 in assay [4] (setting [5]), in assay [1] (setting [5]) and in assay [3] (ppMlc (T18/S19)) were more than 1000 nM, more than 1000 nM and 6350 nM, respectively.

Consider `Cc1cc(Nc2ccc(-c3ccncc3)cc2)nc(N2CCNC(C)CC2)n1` (centres unmarked) [Example 245, 6-methyl-2-(5-methyl-1,4-diazepan-1-yl)-N-(4-(pyridin-4-yl)phenyl)pyrimidin-4-amine], for which the inhibition at 3 µM in assay [4] and in assay [1] was 100% each time. In addition, the IC50 in assay [4] (setting [5]) was more than 1000 nM; in assay [1] (setting [5]), more than 1000 nM; in assay [3] (ppMlc (T18/S19)), 8220 nM.

For `Cc1cc(Nc2ccc(-c3ccncc3)cc2)nc(N2CCCNC(C)C2)n1` (centres unmarked) [Example 247, 6-methyl-2-(3-methyl-1,4-diazepan-1-yl)-N-(4-(pyridin-4-yl)phenyl)pyrimidin-4-amine], the inhibition at 3 µM in assay [4] and in assay [1] was 100% throughout. Further, the IC50 in assay [4] (setting [5]) was found to be 132 nM; in assay [1] (setting [5]), 407 nM; in assay [3] (ppMlc (T18/S19)), 1960 nM.

As to `CCC1CN(c2nccc(Nc3ccc(-c4ccncc4)cc3)n2)CCCN1` (centres unmarked) [Example 248, 2-(3-ethyl-1,4-diazepan-1-yl)-N-(4-(pyridin-4-yl)phenyl)pyrimidin-4-amine], the inhibition at 3 µM in assay [4] and in assay [1] was 100% throughout. Also, the results for the IC50 in assay [4] (setting [5]), in assay [1] (setting [5]) and in assay [3] (ppMlc (T18/S19)) were 36 nM, 43.9 nM and 968 nM, respectively.

With `CCC1CCN(c2nccc(Nc3ccc(-c4ccncc4)cc3)n2)CCN1` (centres unmarked) [Example 249, 2-(5-ethyl-1,4-diazepan-1-yl)-N-(4-(pyridin-4-yl)phenyl)pyrimidin-4-amine], the IC50 in assay [4] (setting [5]) and in assay [1] (setting [5]) was more than 1000 nM in each case. The inhibition at 10 µM in assay [3] amounted to 33.6%.

As to `CC(C)C1CCN(c2nccc(Nc3ccc(-c4ccncc4)cc3)n2)CCN1` (centres unmarked) [Example 250, 2-(5-isopropyl-1,4-diazepan-1-yl)-N-(4-(pyridin-4-yl)phenyl)pyrimidin-4-amine], the figures for the IC50 in assay [4] (setting [5]), in assay [1] (setting [5]) and in assay [3] (ppMlc (T18/S19)) were more than 1000 nM, more than 1000 nM and 5440 nM, respectively. In addition, the inhibition at 10 µM in assay [3] came to 50.4%.

Consider `CC(C)C1CN(c2nccc(Nc3ccc(-c4ccncc4)cc3)n2)CCCN1` (centres unmarked) [Example 251, 2-(3-isopropyl-1,4-diazepan-1-yl)-N-(4-(pyridin-4-yl)phenyl)pyrimidin-4-amine], for which the IC50 in assay [4] (setting [5]) stood at 57 nM; in assay [1] (setting [5]), 160 nM; in assay [3] (ppMlc (T18/S19)) it was 614 nM. Also, the inhibition at 10 µM in assay [3] was found to be 66.9%.

Consider `c1ccc(C2CCN(c3nccc(Nc4ccc(-c5ccncc5)cc4)n3)CCN2)cc1` (centres unmarked) [Example 271, 2-(5-phenyl-1,4-diazepan-1-yl)-N-(4-(pyridin-4-yl)phenyl)pyrimidin-4-amine], for which the IC50 in assay [4] (setting [5]) and in assay [1] (setting [5]) was more than 1000 nM each time. Further, in assay [3], the inhibition at 10 µM is 28.3%.

Consider `c1ccc2c(Nc3ccc(-c4ccncc4)cc3)nc(N3CCCNCC3)nc2c1` [Example 272, 2-(1,4-diazepan-1-yl)-N-(4-(pyridin-4-yl)phenyl)quinazolin-4-amine], for which the inhibition at 3 µM came out at 88.5% in assay [4] and 85.8% in assay [1]. The inhibition at 10 µM in assay [3] was determined as 53.3%.

On to `c1cc(-c2ccc(Nc3ccnc(N4CCCNCC4)n3)cc2)ccn1` [Example 273, 2-(1,4-diazepan-1-yl)-N-(4-(pyridin-4-yl)phenyl)pyrimidin-4-amine], for which the inhibition at 3 µM in assay [4] came out at 89.1%; in assay [1], 85.6%. Also, in assay [3], the inhibition at 10 µM was determined as 44.1%.

For `c1cc(-c2ccc(Nc3nc(N4C5CCC4CNC5)nc4c3COC4)cc2)ccn1` [Example 281, 2-(3,8-diazabicyclo[3.2.1]octan-8-yl)-N-(4-(pyridin-4-yl)phenyl)-5,7-dihydrofuro[3,4-d]pyrimidin-4-amine], the inhibition at 0.5 µM in assay [4] is 14%; in assay [1], 10%. Besides, in assay [1], the IC50 came out at 2570 nM. Also, the inhibition at 1 µM in assay [3] turned out to be 10.4%.

`c1cc2[nH]ncc2cc1Nc1nc(N2C3CNCC2C3)nc2c1COC2` [Example 283, 2-(3,6-diazabicyclo[3.1.1]heptan-6-yl)-N-(1H-indazol-5-yl)-5,7-dihydrofuro[3,4-d]pyrimidin-4-amine]: the inhibition at 0.5 µM in assay [4] is 101%. In assay [1], the IC50 was less than 0.1 nM and the inhibition at 0.5 µM was found to be 101%. The inhibition at 1 µM in assay [3] came to 25.8%.

On to `c1cc2[nH]ncc2cc1Nc1nc(N2CC3CC2CN3)nc2c1COC2` (centres unmarked) [Example 284, 2-(2,5-diazabicyclo[2.2.1]heptan-2-yl)-N-(1H-indazol-5-yl)-5,7-dihydrofuro[3,4-d]pyrimidin-4-amine], for which the inhibition at 0.5 µM came out at 25% in assay [4] and 30% in assay [1]. Moreover, the inhibition at 1 µM in assay [3] worked out at 24.1%.

For `CN1CCc2c(nc(N3C4CNCC3C4)nc2Nc2ccc3[nH]ncc3c2)C1` [Example 313, 2-(3,6-diazabicyclo[3.1.1]heptan-6-yl)-N-(1H-indazol-5-yl)-7-methyl-5,6,7,8-tetrahydropyrido[3,4-d]pyrimidin-4-amine], the inhibition at 0.5 µM in assay [4] is 94%; in assay [1], 99%. Also, the IC50 in assay [1] was found to be 14 nM; in assay [3], 3030 nM.

Consider `CNc1cc(Nc2ccc3[nH]ncc3c2)nc(N2C3CCC2CNC3)n1` [Example 329, 2-(3,8-diazabicyclo[3.2.1]octan-8-yl)-N4-(1H-indazol-5-yl)-N6-methylpyrimidine-4,6-diamine], for which the IC50 was found to be 1.8 nM in assay [1] and 0.09 µM in assay [2] (with TGFβ1, 24 hr).

Consider `CN(C)c1cc(Nc2cc3cn[nH]c3cc2F)nc(N2C3CCC2CNC3)n1` [Example 331, 2-(3,8-diazabicyclo[3.2.1]octan-8-yl)-N4-(6-fluoro-1H-indazol-5-yl)-N6,N6-dimethylpyrimidine-4,6-diamine], for which the IC50 in assay [1] was 5.9 nM; in assay [2] (with TGFβ1, 24 hr), 0.318 µM.

With `c1cncc(-c2cccc(Nc3ccnc(N4CCNCC4)n3)c2)c1` [Example 346, 2-(piperazin-1-yl)-N-(3-(pyridin-3-yl)phenyl)pyrimidin-4-amine], the IC50 in assay [4] and in assay [1] was more than 10000 nM each time. For the same compound, the inhibition at 10 µM in assay [3] came to 12.3%.
